Values after ≈ are worked out from the molar mass of the structure shown. Where only a bound is given, the exact number is not on record here.

Common to all, as to type: functional
Holding throughout (settings): read-out: ED50 (the source's name)

The subject of one test is P388. Nature of the test: Cytotoxicity against mouse P388 cells by modified MTT assay. A general note: Formazan colour is commonly taken as a measure of viable cells.
In the next test the test system is KB. The test can be described thus: Cytotoxicity against human KB cells by modified MTT assay.
A further test concerns A549. The test can be described thus: Cytotoxicity against human A549 cells by modified MTT assay.
A further test deals with HT-29. The test can be described thus: Cytotoxicity against human HT29 cells by modified MTT assay.

Regarding `CC(C)[C@@H](C)[C@H]1C[C@@H]1[C@@H](C)[C@H]1CC[C@@H]2[C@]1(C)CC[C@H]1[C@]23C=C[C@]2(C[C@@H](O)CC[C@]12C)OO3`, the EC50 turned out to be 0.4 µg/mL (≈ 0.904 µM) with P388, 2.1 µg/mL (≈ 4.74 µM) in the test with KB, 2.7 µg/mL (≈ 6.1 µM) in the test with A549 and 1.4 µg/mL (≈ 3.16 µM) in the test with HT-29.
On to `CC(=O)[C@H]1CC[C@H]2[C@@H]3CC=C4C[C@@H](O)CC[C@]4(C)[C@H]3CC[C@]12C` [PREGNENOLONE], for which the EC50 in the test with P388 was 7.8 µg/mL (≈ 24.6 µM); in the test on KB, greater than 50 µg/mL; in the test with A549, 8.6 µg/mL (≈ 27.2 µM); in the test on HT-29, 0.7 µg/mL (≈ 2.21 µM).
With `C=C(CC[C@@H](C)[C@H]1CC[C@H]2[C@@H]3C[C@@H](O)[C@@]4(O)C[C@@H](O)C[C@H](O)[C@]4(C)[C@H]3CC[C@]12C)C(C)C`, the EC50 stood at 8.3 µg/mL (≈ 18.5 µM) in the test on P388, 1.9 µg/mL (≈ 4.23 µM) in the test with KB, 10.8 µg/mL (≈ 24.1 µM) in the test on A549 and 1.5 µg/mL (≈ 3.34 µM) with HT-29.

The values are drawn from ChEMBL document CHEMBL1155667, “A cytotoxic 5alpha,8alpha-epidioxysterol from a soft coral Sinularia species” (2000).
